Reference: publication PMC3127977, “No relevant cardiac, pharmacokinetic or safety interactions between roflumilast and inhaled formoterol in healthy subjects: an open-label, randomised, actively controlled study” (BMC Clinical Pharmacology, 2011)

Key:
[1] = parameters: method as in PMID 20690782; conditions: cited from earlier work
healthy subjects [2] = tested on: healthy subjects; parameters: method as in earlier work; conditions: cited from earlier work
healthy subjects [3] = assay: Adverse event monitoring; format: in vivo, human
Description: Blood and urine samples for conventional clinical laboratory safety tests were obtained at the screening visit, in the morning of each main profiling day, and on Day 19. Adverse events (AEs) were monitored throughout the study.

[4] = Steady-state plasma pharmacokinetics (HPLC-MS/MS) in healthy men; oral roflumilast 500 μg once daily, inhaled formoterol 24 μg twice daily; conditions: for AUC / Cmax: male, human, plasma, oral; for AUC: AUCτ; for AUC / Cmax / C trough / CL/F: steady state, geometric mean (68% range)
Method: For Regimen A, subjects received 500 μg oral roflumilast once daily (daily dose: one tablet of roflumilast 500 μg) from the morning of Day 2 to the morning of Day 18. […] For Regimen B, subjects received 24 μg formoterol for oral inhalation delivered by a DPI device (Foradil® P) twice daily, once in the morning and once in the evening from the morning of Day 2 to the evening of Day 18.
Pre-dose blood samples for determination of trough levels were taken on Days 9 and 10 for Regimen A (morning only), and on Days 6 and 7 (morning and evening) for Regimen B. Blood samples (4.5 mL) were collected in heparinised tubes and plasma was obtained by centrifugation at 1550 g for 15 minutes. Plasma samples were stored at -20°C or below for roflumilast, and at -70°C for formoterol. Plasma concentrations of roflumilast and roflumilast N-oxide were determined using high-performance liquid chromatography coupled with tandem mass spectrometry (HPLC-MS/MS). […] Roflumilast and roflumilast N-oxide standard curves were valid up to 20 ng/mL and 40 ng/mL, respectively. Determination of roflumilast and roflumilast N-oxide was performed at Altana Pharma AG, Konstanz, Germany (Nycomed GmbH). Plasma concentrations of formoterol were determined using HPLC-MS/MS. The LLOQ in plasma was 0.4 pg/mL using a sample volume of 1.0 mL. […] Determination of formoterol was performed at pharm-analyt Labor GmbH, Baden, Austria, under the supervision of Altana Pharma AG(Nycomed GmbH).
For roflumilast, roflumilast N-oxide and formoterol, the maximum plasma concentration (Cmax) was derived directly from the plasma concentrations. The AUC from time zero to the time of the last quantifiable concentration, which corresponded to the dosing interval of each analyte (AUC0-τ), was estimated using the linear trapezoidal method. Apparent clearance at steady state (CL/F; calculated by dose/AUCτ) was reported for roflumilast only. […] The calculation of tPDE4i was based on the equation described in Lahu et al..

[5] = cited from earlier work
[6] = 500 μg, Regimen A Day 11 (roflumilast alone)
[7] = Regimen A Day 18 (roflumilast plus formoterol)
[8] = Regimen B Day 18 (formoterol plus roflumilast)
[9] = Regimen A Day 11 (roflumilast alone)

## O=C(Nc1c(Cl)cncc1Cl)c1ccc(OC(F)F)c(OCC2CC2)c1 [Roflumilast, 3-cyclopropylmethoxy-N-(3,5-dichloropyridin-4-yl)-4-(difluoromethoxy)benzamide]
[1]
  increase in tPDE4i expected in patients with COPD compared with healthy individuals: 12.6%
Healthy subjects [2]
  effect on cardiac repolarisation (QT/QTc interval): no significant effect
Healthy subjects [3]; Regimen A, Day 2 to Day 11
  number of AEs: 17 AEs
Healthy subjects [3]; Regimen A, Day 2 to Day 11, n = 12
  subjects who experienced AEs: 7 subjects
Healthy subjects [3]; Regimen A, roflumilast alone
  dizziness reports: four
  myalgia reports: four
Healthy subjects [3]; administered alone (Regimens A and B respectively)
  tremor: not observed
[4]; Regimen B Day 18 (co-administered with formoterol) compared with Regimen A Day 11 or Day 18
  steady-state AUC and Cmax values lower: 10-15%
[4]; concomitant inhaled formoterol compared with roflumilast alone
  changes in peak concentration and exposure: less than 1%
[4]; formoterol added to roflumilast, or roflumilast added to formoterol
  changes in steady-state pharmacokinetics when the other drug was added: no relevant changes
[4]; [6]
  AUC: 35.8 ng·h/mL
  Cmax: 6.89 ng/mL
[4]; [7]
  AUC: 36.9 ng·h/mL
  Cmax: 6.43 ng/mL
  C trough: 0.50 (0.29-0.86) μg/L
  CL/F: 13.5 (10.3-17.7) L/h
[4]; [8]
  AUC: 31.8 ng·h/mL
  Cmax: 5.92 ng/mL
  C trough: 0.37 (0.18-0.77) μg/L
  CL/F: 15.7 (10.4-23.5) L/h
[4]; [9]
  C trough: 0.53 (0.33-0.85) μg/L
  CL/F: 13.9 (10.8-17.9) L/h
[5]; repeated dose
  median effective plasma half-life: 17 h
[5]; single oral 500 μg dose, healthy individuals
  mean bioavailability: 79%
[5]; within the 250-1000 μg dose range
  dose dependence of pharmacokinetics: dose-proportional
